Results published in ChEMBL document CHEMBL1201862, “PubChem BioAssay data set” (2004).
Calls of active or inactive are those of the source.

Legend:
Tumor necrosis factor = Tumor necrosis factor (Homo sapiens, UniProt P01375); experiment: analog potency on TNFa NF-kB signaling – cell-based, revised, SAR follow-up (AID 2337); format: functional
[1] = molecular target: Nucleotide-binding oligomerization domain-containing protein 1 (Homo sapiens, UniProt Q9Y239); experiment: blockers of NOD1 pathway activity – revised, SAR follow-up (AID 2333); format: functional
Nucleotide-binding oligomerization domain-containing protein 1, sequence (Q9Y239 whole entry, the tested form may be a part): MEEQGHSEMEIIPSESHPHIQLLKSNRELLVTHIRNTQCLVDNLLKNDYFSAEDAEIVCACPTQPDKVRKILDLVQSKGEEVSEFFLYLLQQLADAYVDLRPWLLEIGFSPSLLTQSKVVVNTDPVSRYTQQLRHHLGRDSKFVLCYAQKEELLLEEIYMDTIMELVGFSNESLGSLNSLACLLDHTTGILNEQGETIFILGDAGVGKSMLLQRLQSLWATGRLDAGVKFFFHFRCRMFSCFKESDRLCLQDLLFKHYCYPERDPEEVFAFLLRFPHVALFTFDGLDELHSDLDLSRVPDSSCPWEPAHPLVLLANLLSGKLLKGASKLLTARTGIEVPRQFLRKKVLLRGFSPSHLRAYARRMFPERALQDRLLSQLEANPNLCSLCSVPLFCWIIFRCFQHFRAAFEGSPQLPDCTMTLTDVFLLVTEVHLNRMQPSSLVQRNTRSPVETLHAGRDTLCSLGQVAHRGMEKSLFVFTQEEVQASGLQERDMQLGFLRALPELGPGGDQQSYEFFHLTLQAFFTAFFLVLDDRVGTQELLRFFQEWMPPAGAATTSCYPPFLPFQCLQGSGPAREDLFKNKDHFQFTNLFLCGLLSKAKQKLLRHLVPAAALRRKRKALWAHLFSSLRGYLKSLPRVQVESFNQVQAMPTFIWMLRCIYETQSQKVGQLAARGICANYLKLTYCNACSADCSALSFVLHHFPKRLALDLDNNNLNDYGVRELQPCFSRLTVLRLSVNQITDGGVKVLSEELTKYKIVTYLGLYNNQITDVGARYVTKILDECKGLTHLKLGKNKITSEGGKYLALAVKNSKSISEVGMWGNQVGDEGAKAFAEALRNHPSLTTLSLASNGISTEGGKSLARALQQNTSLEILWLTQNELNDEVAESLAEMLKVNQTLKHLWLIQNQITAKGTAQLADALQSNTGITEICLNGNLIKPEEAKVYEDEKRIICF

[2] = molecular target: Nucleotide-binding oligomerization domain-containing protein 2 (Homo sapiens, UniProt Q9HC29); experiment: PubChem AID 2334; format: functional
Nucleotide-binding oligomerization domain-containing protein 2, sequence (Q9HC29 whole entry, the tested form may be a part): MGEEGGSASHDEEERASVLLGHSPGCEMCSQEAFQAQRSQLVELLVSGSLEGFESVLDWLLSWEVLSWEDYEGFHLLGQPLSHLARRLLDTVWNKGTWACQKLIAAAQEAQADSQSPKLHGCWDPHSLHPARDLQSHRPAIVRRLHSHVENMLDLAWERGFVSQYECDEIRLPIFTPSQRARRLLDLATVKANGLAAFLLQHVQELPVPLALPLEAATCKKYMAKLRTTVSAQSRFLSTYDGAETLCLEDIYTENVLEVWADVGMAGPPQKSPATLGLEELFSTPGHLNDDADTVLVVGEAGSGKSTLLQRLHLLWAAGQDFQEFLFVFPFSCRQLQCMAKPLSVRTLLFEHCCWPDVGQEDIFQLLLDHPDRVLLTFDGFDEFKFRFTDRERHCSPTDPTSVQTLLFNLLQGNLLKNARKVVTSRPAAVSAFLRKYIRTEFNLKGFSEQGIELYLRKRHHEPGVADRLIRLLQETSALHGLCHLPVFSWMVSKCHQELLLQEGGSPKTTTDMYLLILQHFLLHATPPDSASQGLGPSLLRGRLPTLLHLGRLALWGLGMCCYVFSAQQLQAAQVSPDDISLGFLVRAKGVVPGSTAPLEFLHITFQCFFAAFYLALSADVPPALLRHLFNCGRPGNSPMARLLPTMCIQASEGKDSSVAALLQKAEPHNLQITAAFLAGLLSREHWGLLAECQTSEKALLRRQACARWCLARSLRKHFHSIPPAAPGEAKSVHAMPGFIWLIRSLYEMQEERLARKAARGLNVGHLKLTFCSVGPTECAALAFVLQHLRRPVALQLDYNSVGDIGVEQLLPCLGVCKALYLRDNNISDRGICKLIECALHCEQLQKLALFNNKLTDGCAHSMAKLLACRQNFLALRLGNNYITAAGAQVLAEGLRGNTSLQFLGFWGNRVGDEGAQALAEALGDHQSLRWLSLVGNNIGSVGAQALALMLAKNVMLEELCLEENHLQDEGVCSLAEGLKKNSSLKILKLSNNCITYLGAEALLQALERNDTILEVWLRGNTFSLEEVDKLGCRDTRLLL

HEK293 = experiment: cells; conditions: Homo sapiens;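 also: cells exposed to compound for 14 hours overnight before viability readout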
[3] = decrease of insulin promoter-GFP reporter – imaging, high-content screening, mouse beta cells (AID 1628); format: functional; conditions: MIN6
[4] = MIN6 cell viability loss – mouse insulinoma, cytotoxicity control, dose response (AID 2122); format: functional;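 also: confirmatory high-throughput counterscreen run to flag cytotoxic compounds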
SUMO-activating enzyme [5] = molecular target: T1, SUMO-activating enzyme (Homo sapiens, UniProt Q9UBT2); experiment: blockers of UBC9-mediated SUMO conjugation – biochemical, AlphaScreen, SUMOylation inhibitor project, confirmation (AID 2018); format: functional
T1 sequence (Q9UBE0 whole entry): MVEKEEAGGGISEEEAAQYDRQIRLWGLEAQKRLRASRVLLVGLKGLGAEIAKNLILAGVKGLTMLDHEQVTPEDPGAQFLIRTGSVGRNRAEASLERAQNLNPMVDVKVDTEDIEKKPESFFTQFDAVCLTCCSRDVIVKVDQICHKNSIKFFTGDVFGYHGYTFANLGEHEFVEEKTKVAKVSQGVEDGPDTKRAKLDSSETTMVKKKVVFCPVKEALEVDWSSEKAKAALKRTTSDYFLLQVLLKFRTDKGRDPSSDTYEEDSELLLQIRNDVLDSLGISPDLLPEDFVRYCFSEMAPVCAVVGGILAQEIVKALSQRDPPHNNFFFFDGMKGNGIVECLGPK
T1 sequence (Q9UBT2 whole entry): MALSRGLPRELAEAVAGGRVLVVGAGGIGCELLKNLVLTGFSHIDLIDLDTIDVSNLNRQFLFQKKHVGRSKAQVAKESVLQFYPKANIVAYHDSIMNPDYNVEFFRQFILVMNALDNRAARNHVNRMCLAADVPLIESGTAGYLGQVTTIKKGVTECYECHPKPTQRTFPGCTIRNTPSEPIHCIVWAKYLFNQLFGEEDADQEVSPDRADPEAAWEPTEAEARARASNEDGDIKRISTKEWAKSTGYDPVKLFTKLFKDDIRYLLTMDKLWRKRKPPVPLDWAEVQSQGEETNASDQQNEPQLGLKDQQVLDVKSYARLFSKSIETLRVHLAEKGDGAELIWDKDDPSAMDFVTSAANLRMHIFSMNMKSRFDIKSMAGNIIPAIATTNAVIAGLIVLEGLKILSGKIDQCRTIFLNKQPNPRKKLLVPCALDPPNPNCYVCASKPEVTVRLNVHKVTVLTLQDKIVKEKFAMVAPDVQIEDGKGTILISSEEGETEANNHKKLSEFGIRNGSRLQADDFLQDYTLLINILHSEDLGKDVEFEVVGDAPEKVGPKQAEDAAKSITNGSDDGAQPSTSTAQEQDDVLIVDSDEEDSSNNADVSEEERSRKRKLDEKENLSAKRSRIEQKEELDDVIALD

SUMO-activating enzyme [6] = molecular target: T1, SUMO-activating enzyme; experiment: blockers of SAE1/SAE2–UBC9 SUMO transfer – biochemical, HTRF, uHTS, primary screen (AID 2006); format: protein-complex assay
[7] = HEK-293T cell viability reduction – luminescence, B-cell screen hits, cytotoxicity control for BCR NF-kB inhibitor project, dose response (AID 489021); format: functional, cell-based;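 also: HEK-293T cells carrying an NF-kB luciferase reporter; cells exposed to compound for about 14 hours before viability readout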
[8] = molecular target: T2, Replicative DNA helicase DnaB (Mycobacterium tuberculosis, UniProt P9WMR3); experiment: DnaB intein splicing inhibitors, dose response, biochemical, cell-free fluorescence (AID 449749); format: functional
T2 sequence (P9WMR3 whole entry): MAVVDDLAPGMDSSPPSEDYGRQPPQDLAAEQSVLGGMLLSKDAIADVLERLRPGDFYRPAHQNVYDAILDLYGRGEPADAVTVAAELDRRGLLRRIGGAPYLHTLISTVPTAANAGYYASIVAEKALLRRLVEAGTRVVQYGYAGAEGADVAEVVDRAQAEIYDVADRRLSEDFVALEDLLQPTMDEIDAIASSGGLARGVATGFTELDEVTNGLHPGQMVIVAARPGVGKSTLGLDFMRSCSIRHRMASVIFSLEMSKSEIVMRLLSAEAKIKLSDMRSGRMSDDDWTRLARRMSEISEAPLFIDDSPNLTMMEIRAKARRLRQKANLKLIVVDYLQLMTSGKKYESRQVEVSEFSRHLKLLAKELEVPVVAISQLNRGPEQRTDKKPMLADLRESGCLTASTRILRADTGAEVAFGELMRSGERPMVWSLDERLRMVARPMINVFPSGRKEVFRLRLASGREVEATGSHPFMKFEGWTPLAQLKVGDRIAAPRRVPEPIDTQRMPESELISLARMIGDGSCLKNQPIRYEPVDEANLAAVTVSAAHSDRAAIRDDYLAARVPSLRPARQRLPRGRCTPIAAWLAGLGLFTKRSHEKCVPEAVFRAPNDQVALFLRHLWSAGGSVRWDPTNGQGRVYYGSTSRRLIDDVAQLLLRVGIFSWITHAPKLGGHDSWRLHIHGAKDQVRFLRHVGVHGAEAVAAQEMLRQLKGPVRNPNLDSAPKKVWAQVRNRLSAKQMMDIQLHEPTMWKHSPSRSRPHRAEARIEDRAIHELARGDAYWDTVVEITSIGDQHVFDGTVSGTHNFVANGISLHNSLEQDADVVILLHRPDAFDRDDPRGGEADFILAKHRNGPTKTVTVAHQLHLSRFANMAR

[9] = molecular target: Heat shock protein HSP 90-alpha (Homo sapiens, UniProt P07900); format: functional, organism-based
[10] = molecular target: T3, High affinity choline transporter 1 (Homo sapiens, UniProt Q9GZV3); experiment: human choline transporter blockers, potency – cell-based, 5-point CRC, membrane potential dye, dose response (AID 504840); format: functional
T3 sequence (Q9GZV3 whole entry): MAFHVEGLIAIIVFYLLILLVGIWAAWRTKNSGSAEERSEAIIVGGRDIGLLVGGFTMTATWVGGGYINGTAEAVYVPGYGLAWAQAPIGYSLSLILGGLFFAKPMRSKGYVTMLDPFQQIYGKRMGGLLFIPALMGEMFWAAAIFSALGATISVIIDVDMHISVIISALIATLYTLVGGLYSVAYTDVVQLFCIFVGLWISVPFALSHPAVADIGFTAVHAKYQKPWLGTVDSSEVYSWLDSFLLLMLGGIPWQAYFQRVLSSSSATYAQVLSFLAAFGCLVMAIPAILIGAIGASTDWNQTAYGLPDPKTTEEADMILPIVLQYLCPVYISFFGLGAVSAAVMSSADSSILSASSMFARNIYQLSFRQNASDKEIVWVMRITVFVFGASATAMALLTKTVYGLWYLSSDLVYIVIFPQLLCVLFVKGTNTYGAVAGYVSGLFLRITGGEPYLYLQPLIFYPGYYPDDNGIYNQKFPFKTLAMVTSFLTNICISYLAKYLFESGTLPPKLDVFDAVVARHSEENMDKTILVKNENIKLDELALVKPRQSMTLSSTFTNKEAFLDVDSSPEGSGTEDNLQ

Protein RecA = molecular target: T4, Protein RecA (Mycobacterium tuberculosis, UniProt P9WHJ3); experiment: Fluorescence Cell-Free Homogeneous Dose Retest to Identify Inhibitors of RecA-Intein Splicing Activity. [Related pubchem assays (depositor defined):AID2097, AID2223, AID489010, AID492950]; format: functional
T4 sequence (P9WHJ3 whole entry): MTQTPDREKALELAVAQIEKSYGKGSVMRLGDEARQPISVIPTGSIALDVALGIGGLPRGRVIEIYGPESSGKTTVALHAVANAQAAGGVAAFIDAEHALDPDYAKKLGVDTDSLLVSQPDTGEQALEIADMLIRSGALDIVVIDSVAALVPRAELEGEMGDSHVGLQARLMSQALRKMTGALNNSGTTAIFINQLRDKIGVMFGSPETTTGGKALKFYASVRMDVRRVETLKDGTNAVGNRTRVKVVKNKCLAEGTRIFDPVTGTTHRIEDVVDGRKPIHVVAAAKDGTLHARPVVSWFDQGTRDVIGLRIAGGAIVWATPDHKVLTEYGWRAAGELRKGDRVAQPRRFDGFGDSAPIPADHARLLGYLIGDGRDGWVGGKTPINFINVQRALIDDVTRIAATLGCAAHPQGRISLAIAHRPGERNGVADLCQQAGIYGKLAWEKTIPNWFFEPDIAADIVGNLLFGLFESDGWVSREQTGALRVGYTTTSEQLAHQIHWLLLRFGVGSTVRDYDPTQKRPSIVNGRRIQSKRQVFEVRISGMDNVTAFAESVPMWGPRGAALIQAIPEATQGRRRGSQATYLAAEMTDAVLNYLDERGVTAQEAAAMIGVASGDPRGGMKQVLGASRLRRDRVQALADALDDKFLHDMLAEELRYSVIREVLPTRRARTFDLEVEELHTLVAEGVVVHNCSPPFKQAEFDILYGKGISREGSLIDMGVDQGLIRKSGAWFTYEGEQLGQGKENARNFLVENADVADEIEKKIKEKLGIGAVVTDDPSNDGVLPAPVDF

INS1 = experiment: INS-1E survival protection against cytokine death – cell-based, luminescence, retest, dose response (AID 449756); format: functional; conditions: Rattus norvegicus;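 also: cell death triggered by IL-1 beta plus TNF-alpha plus IFN-gamma mixture; protective hits raise ATP signal compared with cytokine alone wells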
[11] = A549 cell cytotoxicity, dose response, cytotoxicity control, plate reader, cherry-pick, antagonist series (AID 743412); format: functional, cell-based
[12] = toxicity toward HepG2 liver cells – cell-based, plate reader, cherry-pick, antagonist series, cytotoxicity control, dose response (AID 743416); format: functional
[13] = blockers of bursicon-stimulated LGR2 cAMP reporter – cell-based, HEK293, CRE-luciferase reporter, cherry pick, set 2, dose response (AID 743343); format: functional;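 also: transfected cells were stimulated with diluted bursicon conditioned medium after compound addition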
[14] = blockade of melanocortin 4 receptor signaling – cell-based, plate reader, cherry pick, counter-screen for LGR2 antagonist project, dose response (AID 743444); format: functional;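 also: transfected HEK 293 cells stimulated with alpha-MSH peptide; potency of inhibitors of the alpha-MSH evoked signal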
[15] = viability loss in HEK293 cells – cell-based, plate reader, cherry-picked samples, cytotoxicity control, dose response (AID 743446); format: functional
CAAX prenyl protease 2 = CAAX prenyl protease 2 (Saccharomyces cerevisiae S288c, UniProt Q03530); format: biochemical
CAAX prenyl protease 2, sequence (Q03530 whole entry): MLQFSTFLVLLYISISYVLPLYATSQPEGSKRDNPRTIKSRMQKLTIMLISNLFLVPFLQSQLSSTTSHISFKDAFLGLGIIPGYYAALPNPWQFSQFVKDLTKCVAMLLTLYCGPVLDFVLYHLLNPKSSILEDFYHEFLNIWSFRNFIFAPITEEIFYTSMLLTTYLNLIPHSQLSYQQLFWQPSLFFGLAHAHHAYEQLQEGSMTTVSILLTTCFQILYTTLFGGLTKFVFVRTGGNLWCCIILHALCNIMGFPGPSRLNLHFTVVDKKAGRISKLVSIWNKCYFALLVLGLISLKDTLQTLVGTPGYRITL

CAAX prenyl protease 1 = CAAX prenyl protease 1 (Saccharomyces cerevisiae S288c, UniProt P47154); experiment: yeast CAAX protease Ste24 inhibition – biochemical, S. cerevisiae, plate reader, cherry-pick, dose response (AID 488815)
CAAX prenyl protease 1, sequence (P47154 whole entry): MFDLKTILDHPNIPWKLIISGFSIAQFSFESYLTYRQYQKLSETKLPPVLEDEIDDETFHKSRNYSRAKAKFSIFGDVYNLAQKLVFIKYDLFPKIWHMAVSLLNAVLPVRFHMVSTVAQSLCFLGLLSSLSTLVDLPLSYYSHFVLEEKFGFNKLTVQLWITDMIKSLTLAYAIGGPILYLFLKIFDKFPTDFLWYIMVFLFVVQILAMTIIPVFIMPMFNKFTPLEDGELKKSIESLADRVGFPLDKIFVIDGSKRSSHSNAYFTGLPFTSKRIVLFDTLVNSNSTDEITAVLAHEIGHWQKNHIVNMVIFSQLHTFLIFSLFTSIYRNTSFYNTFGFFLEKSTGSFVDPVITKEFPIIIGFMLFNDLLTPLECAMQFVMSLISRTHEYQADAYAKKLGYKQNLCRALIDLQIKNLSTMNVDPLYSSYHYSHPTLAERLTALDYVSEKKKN

Tumor necrosis factor, sequence (P01375 whole entry, the tested form may be a part): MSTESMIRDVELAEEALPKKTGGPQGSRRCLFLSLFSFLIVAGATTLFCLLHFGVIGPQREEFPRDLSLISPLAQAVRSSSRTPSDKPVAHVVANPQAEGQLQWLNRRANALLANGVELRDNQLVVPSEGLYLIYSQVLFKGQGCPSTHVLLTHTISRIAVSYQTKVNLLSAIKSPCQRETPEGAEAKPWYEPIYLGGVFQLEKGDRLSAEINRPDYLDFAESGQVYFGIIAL

Cc1cc(C(=O)NC2CCCc3c2cnn3-c2ccccc2F)[nH]n1 (stereo unspecified)
inactive: IC50 (Tumor necrosis factor) > 20 µM | IC50 [1] > 20 µM | IC50 [2] > 20 µM | IC50 (HEK293) > 20 µM

O=C(Nc1nc(-c2ccccc2)cs1)c1ccccc1NS(=O)(=O)c1ccc(F)cc1
active: IC50 [3] 3.02 µM | IC50 [4] 2.18 µM | IC50 (SUMO-activating enzyme [5]) 7.97 µM | IC50 (SUMO-activating enzyme [6]) 18.4 µM | IC50 [7] 14.8 µM | AC50 [8] 2.17 µM | AC50 [9] 2.91 µM | IC50 [10] 13.8 µM | EC50 (Protein RecA) 8.85 µM | AC50 (INS1) 3.41 µM | AC50 [11] 14.6 µM | AC50 [12] 11.2 µM | AC50 [13] 28.6 µM | AC50 [14] 6.01 µM | AC50 [15] 3.39 µM

COc1ccc(N2CCN(C(=O)c3cc(-c4cccs4)nc4ccccc34)CC2)cc1
active: AC50 (CAAX prenyl protease 2) 4.06 µM | AC50 (CAAX prenyl protease 1) 47.6 µM
